# In PMC12888920, “MMP-9 regulates disulphide isomerase activity of TGM2 to enhance fusion glycoprotein-mediated syncytium formation of respiratory syncytial virus” (Protein & Cell, 2025):
# Tests used:
# [1] = test system: RSV A2; test: High-throughput antiviral screening of protease inhibitor library against RSV A2 in HEp-2 cells; type: cell-based, Respiratory syncytial virus; conditions: RSV A2, MOI = 0.1, 1, 5, 10 µmol/L, 72 hpi
# Source text: Figure 1. Antiviral activity of metalloproteinase inhibitors against RSV in vitro. (A) Experimental workflow for RSV A2 infection and compound treatment. (B) High-throughput screening of TargetMol L1100 library (246 host protease inhibitors targeting 10 pathways: MMPs, caspases, proteasomes, apoptosis regulators, cysteine proteases, gamma-secretase, autophagy modulators, serine proteases, DPP-4, and beta-secretase) using concentration gradients (1, 5, 10 µmol/L). HEp-2 cells were pretreated with compounds for 1 hour prior to RSV A2 infection (MOI = 0.1). Plaque formation was quantified at 72 hours post-infection (hpi) and normalized to DMSO controls. […] (G) Target overlap analysis of four MMP-9-targeting inhibitors. (H) Viral titers in supernatants of HEp-2 cells transfected with MMP-specific siRNAs (24 h) followed by RSV A2 infection (MOI = 1, 72 h). mean ± SD, n = 3. The results are representatively shown with three random experiments. The error bars indicate the mean ± SD of three technical replicates (n = 3). Statistical significance was determined by one-way ANOVA with Dunnett’s post hoc test: *P < 0.05, ***P < 0.001; ns, not significant.
# 104 High-throughput antiviral screening
# 105 The L1100 protease inhibitor library (246 compounds; L1100, TargetMol) was
# 106 screened against RSV A2 in HEp -2 cells. Compounds (10 mM DMSO stocks) were
# 107 robotically dispensed 1 h pre -infection at final concentrations of 1, 5, 10 μM.
# 108 Infection rates (72 hpi) were normalized to PC786 (1 μM; positive control; HY -
# 109 111813, MCE) and 0.1% DMSO vehicle. Primary hits (>50% CPE reduction + not
# 110 overtly cytotoxic) underwent dose -response validation (0.00004 –10 μM) to generate
# 111 EC50 curves (GraphPad Prism 8.0) .
# 112 Evaluation of in vitro antiviral activity
# 113 Compound inhibitor treatments: HEp-2 cells (1.3×10⁴/well) or HBEC (1.8×10⁴/well)
# 114 were pretreated with test compounds for 1 h before RSV A2/B18537 infection
# 115 (MOI=0.1 or 0.3). Viral inhibition was quantified at 72 hpi via FFA. Fixed cells (4%
# 116 PFA) were permeabilized (0.3% Triton X-100), stained with anti-RSV-FITC
# 118 Fluorescent foci were normalized to nuclear counts (ImageJ software) for EC 50
# 119 determination via four-parameter logistic regression (GraphPad Prism 8.0). Data
# 120 represent triplicate experiments. […]
# [2] = test system: RSV A2; test: BALB/c mouse model of RSV A2 infection, oral treatment; type: in vivo, BALB/c mice; conditions: 4 dpi, 3 × 10^6 PFU RSV A2
# Protocol: To evaluate the antiviral efficacy of metalloproteinase inhibitors, we employed a BALB/c mouse model intranasally challenged with 3 × 10^6 PFU RSV A2. Mice received twice-daily oral administration of JNJ0966 (selective targeting of MMP-9 ([Scannevin et al., 2017]), 20 or 60 mg/kg [mpk]) or doxycycline hyclate (a broad-spectrum MMP inhibitor ([Patnaik et al., 2021]; [Samtani et al., 2009]), 60 or 180 mpk), beginning 2 hpi (Fig. 9A). By 4 dpi, JNJ0966 (60 mpk) and doxycycline hyclate (180 mpk) reduced lung viral titers by 2.6-fold and 2.0-fold, respectively, compared to vehicle-treated controls (Fig. 9B).
# Figure 9. Therapeutic efficacy of MMP-9 inhibitors against RSV in mice. (A) Therapeutic regimen. […] Lung viral titers quantified by FFA at 4 dpi. mean ± SD, n = 5/group. […] Statistical significance was determined by one-way ANOVA with Dunnett’s post hoc test (B, D): **P < 0.01, ***P < 0.001. […]
# 314 50 μL of stop solution, absorbance at 540 nm was subtracted from the reading at
# 315 450 nm by PerkinElmer Ensight reader, and analyte concentrations were calculated […]
# 329 using a tissue grinder. Viral titers were quantified via FFA using 100 μL of […]
# 332 Two blinded pathologists independently scored histopathological changes on a 0 -4 […]
# 336 Body weights were monitored daily. […]
# 337 transcriptomic analyses. Viral loads were determined as focus -forming units per gram […]
Compound,inhibition of RSV infection in HEp-2 cells [1],reduction of lung viral titers compared to vehicle-treated controls ([2]; 60 mpk oral twice daily),reduction of lung viral titers compared to vehicle-treated controls ([2]; 180 mpk oral twice daily)
COc1ccccc1Nc1nc(-c2sc(NC(C)=O)nc2C)cs1 [JNJ0966],significant dose-dependent inhibition,2.6 fold,
Doxycycline hyclate,significant dose-dependent inhibition,,2.0 fold
